≈ marks a conversion by molar mass, not a printed value.
Experiments:
Format in all cases: functional
[1] = system: Mycobacterium tuberculosis; test: AntiMycobacterium tuberculosis activity 1-week 7H9/ADC/Tw MIC (uM); conditions: 168 h
[2] = system: Mycobacterium tuberculosis; test: (§1) AntiMycobacterium tuberculosis activity day 10 in 7H9/2.5mM butyrate/pH6/0.1mM nitrite MIC90 (uM); conditions: 240 h
[3] = system: Mycobacterium tuberculosis; test: AntiMycobacterium tuberculosis activity day 21 in 7H9/2.5mM butyrate/pH6/0.1mM nitrite MIC90 (uM); conditions: 504 h
[4] = system: Mycobacterium tuberculosis; test: AntiMycobacterium tuberculosis activity 2-week 7H9/ADC/Tw MIC (uM); conditions: 336 h
[5] = system: Mycobacterium tuberculosis; test: AntiMycobacterium tuberculosis activity 1-week GAST/Fe MIC (uM); conditions: 168 h
[6] = system: Mycobacterium tuberculosis; test: AntiMycobacterium tuberculosis activity day 21 MIC99 in 7H9/2.5mM butyrate/pH6/0.1mM nitrite MIC99 (uM); conditions: 504 h
[7] = system: Mycobacterium tuberculosis; test: as §1; conditions: 240 h; remark: listed apart in the source
[8] = system: Mycobacterium tuberculosis; test: AntiMycobacterium tuberculosis activity Replicating form: Average MIC90 (uM)
[9] = system: Mycobacterium tuberculosis; test: AntiMycobacterium tuberculosis activity 2-week GAST/Fe MIC (uM); conditions: 336 h
[10] = system: Mycobacterium tuberculosis; test: AntiMycobacterium tuberculosis activity 2-week Alamar Blue 7H9/cholesterol/BSA/Tx MIC (uM); conditions: 336 h
[11] = system: Mycobacterium tuberculosis; test: AntiMycobacterium tuberculosis activity 1-week 7H9/cholesterol/BSA/Tx MIC (uM); conditions: 168 h
[12] = system: Mycobacterium tuberculosis; test: AntiMycobacterium tuberculosis activity 2-week 7H9/glucose/BSA/Tx MIC (uM); conditions: 336 h
HepG2 = test: HepG2 CC50 (uM) Cytotoxicity; conditions: Homo sapiens
[13] = system: Mycobacterium tuberculosis; test: AntiMycobacterium tuberculosis activity 1-week 7H9/glucose/BSA/Tx MIC (uM); conditions: 168 h
[14] = system: Mycobacterium tuberculosis; test: AntiMycobacterium tuberculosis activity Non-Replicating form: Average MIC90 (uM)
[15] = system: Mycobacterium tuberculosis; test: AntiMycobacterium tuberculosis activity 1-week 7H9/DPPC/cholesterol/BSA/Tx MIC (uM); conditions: 168 h
[16] = system: Mycobacterium tuberculosis; test: AntiMycobacterium tuberculosis activity 2-week 7H9/DPPC/cholesterol/BSA/Tx MIC (uM); conditions: 336 h
[17] = system: Mycobacterium tuberculosis; test: AntiMycobacterium tuberculosis activity 2-week Alamar Blue 7H9/ADC/Tw MIC (uM); conditions: 336 h

Cc1ccc2oc(-c3cc(NC(=O)Cc4ccccc4)ccc3Cl)nc2c1
MIC [1]: 25 µM (≈ 9.42 µg/mL) | MIC90 [2]: > 50 µM | MIC90 [3]: > 50 µM | MIC [4]: 25 µM (≈ 9.42 µg/mL) | MIC [5]: 6.25 µM (≈ 2.36 µg/mL) | MIC [6]: > 50 µM | MIC90 [7]: > 50 µM | MIC90 [8]: 3.58 µM (≈ 1.35 µg/mL) | MIC [9]: 9.4 µM (≈ 3.54 µg/mL) | MIC [10]: 25 µM (≈ 9.42 µg/mL) | MIC [11]: 25 µM (≈ 9.42 µg/mL) | MIC [12]: 25 µM (≈ 9.42 µg/mL) | CC50 (HepG2): 83.6 µM | MIC [13]: 25 µM (≈ 9.42 µg/mL) | MIC90 [14]: > 100 µM | MIC [15]: 12.5 µM (≈ 4.71 µg/mL) | MIC [16]: 12.5 µM (≈ 4.71 µg/mL) | MIC [17]: 25 µM (≈ 9.42 µg/mL)

COc1ccccc1OCCCCn1c(C2CC2)nc2ccccc21
MIC [1]: > 50 µM | MIC90 [2]: 6.25 µM (≈ 2.1 µg/mL) | MIC90 [3]: 25 µM (≈ 8.41 µg/mL) | MIC [4]: > 50 µM | MIC [5]: 0.2 µM (≈ 0.0673 µg/mL) | MIC [6]: > 50 µM | MIC90 [7]: 50 µM (≈ 16.8 µg/mL) | MIC90 [8]: > 100 µM | MIC [9]: 0.6 µM (≈ 0.202 µg/mL) | MIC [10]: 4.7 µM (≈ 1.58 µg/mL) | MIC [11]: 3.13 µM (≈ 1.05 µg/mL) | MIC [12]: > 50 µM | CC50 (HepG2): 100 µM | MIC [13]: 37 µM (≈ 12.4 µg/mL) | MIC90 [14]: 16.4 µM (≈ 5.52 µg/mL) | MIC [15]: 9.4 µM (≈ 3.16 µg/mL) | MIC [16]: 37 µM (≈ 12.4 µg/mL) | MIC [17]: 19 µM (≈ 6.39 µg/mL)

CCOC(=O)c1cc(-c2csc(Nc3c(C)cc(C)cc3C)n2)on1
MIC [1]: 4.7 µM (≈ 1.68 µg/mL) | MIC90 [2]: 3.1 µM (≈ 1.11 µg/mL) | MIC90 [3]: 6.25 µM (≈ 2.23 µg/mL) | MIC [4]: 9.4 µM (≈ 3.36 µg/mL) | MIC [5]: 12.5 µM (≈ 4.47 µg/mL) | MIC [6]: 6.25 µM (≈ 2.23 µg/mL) | MIC90 [7]: 6.25 µM (≈ 2.23 µg/mL) | MIC90 [8]: 17.5 µM (≈ 6.26 µg/mL) | MIC [9]: 12.5 µM (≈ 4.47 µg/mL) | MIC [10]: 3.13 µM (≈ 1.12 µg/mL) | MIC [11]: 1.56 µM (≈ 0.558 µg/mL) | MIC [12]: 4.7 µM (≈ 1.68 µg/mL) | CC50 (HepG2): 24.4 µM | MIC [13]: 3.13 µM (≈ 1.12 µg/mL) | MIC90 [14]: 13.8 µM (≈ 4.94 µg/mL) | MIC [15]: 3.13 µM (≈ 1.12 µg/mL) | MIC [16]: 6.25 µM (≈ 2.23 µg/mL) | MIC [17]: 6.25 µM (≈ 2.23 µg/mL)

CCc1ccc(S(=O)(=O)Nc2cc(CN3CCN(CCC(C)C)CC3)ccc2C)cc1
MIC [1]: 25 µM (≈ 11.1 µg/mL) | MIC90 [2]: > 50 µM | MIC90 [3]: 50 µM (≈ 22.2 µg/mL) | MIC [4]: 25 µM (≈ 11.1 µg/mL) | MIC [5]: 19 µM (≈ 8.43 µg/mL) | MIC [6]: > 50 µM | MIC90 [7]: > 50 µM | MIC90 [8]: 45.6 µM (≈ 20.2 µg/mL) | MIC [9]: 25 µM (≈ 11.1 µg/mL) | MIC [10]: 12.5 µM (≈ 5.55 µg/mL) | MIC [11]: 12.5 µM (≈ 5.55 µg/mL) | MIC [12]: 25 µM (≈ 11.1 µg/mL) | CC50 (HepG2): 27.4 µM | MIC [13]: 25 µM (≈ 11.1 µg/mL) | MIC90 [14]: 89.8 µM (≈ 39.8 µg/mL) | MIC [15]: 12.5 µM (≈ 5.55 µg/mL) | MIC [16]: 12.5 µM (≈ 5.55 µg/mL) | MIC [17]: 25 µM (≈ 11.1 µg/mL)

O=C(NCCc1c[nH]c2ccccc12)c1cc2ccccc2oc1=O
MIC [1]: 0.78 µM (≈ 0.259 µg/mL) | MIC90 [2]: 12.5 µM (≈ 4.15 µg/mL) | MIC90 [3]: 50 µM (≈ 16.6 µg/mL) | MIC [4]: 0.78 µM (≈ 0.259 µg/mL) | MIC [5]: 0.3 µM (≈ 0.0997 µg/mL) | MIC [6]: > 50 µM | MIC90 [7]: > 50 µM | MIC90 [8]: 7.71 µM (≈ 2.56 µg/mL) | MIC [9]: 0.6 µM (≈ 0.199 µg/mL) | MIC [10]: 4.7 µM (≈ 1.56 µg/mL) | MIC [11]: 1.2 µM (≈ 0.399 µg/mL) | MIC [12]: 1.56 µM (≈ 0.518 µg/mL) | CC50 (HepG2): > 100 µM | MIC [13]: 0.78 µM (≈ 0.259 µg/mL) | MIC90 [14]: 4.78 µM (≈ 1.59 µg/mL) | MIC [15]: 1.56 µM (≈ 0.518 µg/mL) | MIC [16]: 3.13 µM (≈ 1.04 µg/mL) | MIC [17]: 0.78 µM (≈ 0.259 µg/mL)

CC(=O)NCC1CN(c2ccc(-c3ccc(CNCc4cn[nH]n4)cc3)c(F)c2)C(=O)O1 (configuration not stated)
MIC [1]: 0.3 µM (≈ 0.132 µg/mL) | MIC90 [2]: 0.19 µM (≈ 0.0833 µg/mL) | MIC90 [3]: 0.39 µM (≈ 0.171 µg/mL) | MIC [4]: 0.39 µM (≈ 0.171 µg/mL) | MIC [5]: 0.1 µM (≈ 0.0438 µg/mL) | MIC [6]: 1.5 µM (≈ 0.658 µg/mL) | MIC90 [7]: 1.5 µM (≈ 0.658 µg/mL) | MIC90 [8]: 0.51 µM (≈ 0.224 µg/mL) | MIC [9]: 0.15 µM (≈ 0.0658 µg/mL) | MIC [10]: 0.39 µM (≈ 0.171 µg/mL) | MIC [11]: 0.3 µM (≈ 0.132 µg/mL) | MIC [12]: 0.3 µM (≈ 0.132 µg/mL) | CC50 (HepG2): > 100 µM | MIC [13]: 0.2 µM (≈ 0.0877 µg/mL) | MIC90 [14]: 0.31 µM (≈ 0.136 µg/mL) | MIC [15]: 0.1 µM (≈ 0.0438 µg/mL) | MIC [16]: 0.3 µM (≈ 0.132 µg/mL) | MIC [17]: 0.39 µM (≈ 0.171 µg/mL)

Cc1cccc(Cn2ccc(NC(=O)c3ccc4c(c3)OCO4)n2)c1
MIC [1]: 9.4 µM (≈ 3.15 µg/mL) | MIC90 [2]: 25 µM (≈ 8.38 µg/mL) | MIC90 [3]: 50 µM (≈ 16.8 µg/mL) | MIC [4]: 25 µM (≈ 8.38 µg/mL) | MIC [5]: 0.2 µM (≈ 0.0671 µg/mL) | MIC [6]: 50 µM (≈ 16.8 µg/mL) | MIC90 [7]: 50 µM (≈ 16.8 µg/mL) | MIC90 [8]: 22.6 µM (≈ 7.58 µg/mL) | MIC [9]: 0.3 µM (≈ 0.101 µg/mL) | MIC [10]: 9.4 µM (≈ 3.15 µg/mL) | MIC [11]: 9.4 µM (≈ 3.15 µg/mL) | MIC [12]: 25 µM (≈ 8.38 µg/mL) | CC50 (HepG2): > 100 µM | MIC [13]: 12.5 µM (≈ 4.19 µg/mL) | MIC90 [14]: 10.4 µM (≈ 3.48 µg/mL) | MIC [15]: 9.4 µM (≈ 3.15 µg/mL) | MIC [16]: 19 µM (≈ 6.37 µg/mL) | MIC [17]: 12.5 µM (≈ 4.19 µg/mL)

O=C(Nc1ccc(C(F)(F)F)c(C(F)(F)F)c1)c1cc(Cl)ccc1O
MIC [1]: 3.13 µM (≈ 1.2 µg/mL) | MIC90 [2]: 1.5 µM (≈ 0.576 µg/mL) | MIC90 [3]: 1.5 µM (≈ 0.576 µg/mL) | MIC [4]: 4.7 µM (≈ 1.8 µg/mL) | MIC [5]: 1.56 µM (≈ 0.599 µg/mL) | MIC [6]: 1.5 µM (≈ 0.576 µg/mL) | MIC90 [7]: 1.5 µM (≈ 0.576 µg/mL) | MIC90 [8]: 2.33 µM (≈ 0.894 µg/mL) | MIC [9]: 2.3 µM (≈ 0.882 µg/mL) | MIC [10]: 1.56 µM (≈ 0.599 µg/mL) | MIC [11]: 1.56 µM (≈ 0.599 µg/mL) | MIC [12]: 3.13 µM (≈ 1.2 µg/mL) | CC50 (HepG2): 0.7 µM | MIC [13]: 1.56 µM (≈ 0.599 µg/mL) | MIC90 [14]: 0.1 µM (≈ 0.0384 µg/mL) | MIC [15]: 2.3 µM (≈ 0.882 µg/mL) | MIC [16]: 3.13 µM (≈ 1.2 µg/mL) | MIC [17]: 4.7 µM (≈ 1.8 µg/mL)

CCCCc1ccc(C(=O)Nc2nccc3ccccc23)nc1
MIC [1]: 4.7 µM (≈ 1.44 µg/mL) | MIC90 [2]: 3.12 µM (≈ 0.953 µg/mL) | MIC90 [3]: 6.25 µM (≈ 1.91 µg/mL) | MIC [4]: 6.25 µM (≈ 1.91 µg/mL) | MIC [5]: 0.78 µM (≈ 0.238 µg/mL) | MIC [6]: 6.25 µM (≈ 1.91 µg/mL) | MIC90 [7]: 3.12 µM (≈ 0.953 µg/mL) | MIC90 [8]: 39.1 µM (≈ 11.9 µg/mL) | MIC [9]: 1.56 µM (≈ 0.476 µg/mL) | MIC [10]: 1.56 µM (≈ 0.476 µg/mL) | MIC [11]: 0.78 µM (≈ 0.238 µg/mL) | MIC [12]: 9.4 µM (≈ 2.87 µg/mL) | CC50 (HepG2): 73.8 µM | MIC [13]: 6.25 µM (≈ 1.91 µg/mL) | MIC90 [14]: 61 µM (≈ 18.6 µg/mL) | MIC [15]: 2.3 µM (≈ 0.702 µg/mL) | MIC [16]: 4.7 µM (≈ 1.44 µg/mL) | MIC [17]: 6.25 µM (≈ 1.91 µg/mL)
